Format in all cases: in vivo
Data set [1] concerns German cockroach, Blattella germanica (L.). In words: Fumigant toxicity in sealed glass jar, German cockroach. Particulars: 30-60 adult males; for mortality at 50 µL/jar: Blattella germanica, inhaled or nasal. As to the method:
(§1) As shown below, Table 1 depicts the toxicity of both monoiodinated and diiodinated hydrocarbons to both the German and the American cockroach after 1 hour of exposure.
(§2) Shown in Table 2 is the toxicity of both monoiodinated and diiodinated hydrocarbons to the German and American cockroach and the Cowpea weevil after 24 hours of exposure.
(§3) In this experiment both the insecticidal and nematicidal properties of iodinated hydrocarbons were compared. In determining the insecticidal properties of the iodinated hydrocarbons, both American (Periplaneta americana) and German (Blattella germanica) cockroaches were used. Groups of cockroaches were confined in 0.95-liter glass jars with a small cotton ball. Exactly 50 μl of a test chemical was applied to the cotton ball and the jar was sealed. Knockdown, defined as the inability to walk in a coordinated manner, and mortality were assessed every 15 minutes for the first hour and hourly thereafter for 8 hours and again after 24 hours.

Data set [2] concerns American cockroach, Periplaneta americana (L.). In words: Fumigant toxicity in sealed glass jar, American cockroach. Particulars: 8-36 adult males; for mortality at 50 µL/jar: Periplaneta americana, inhaled or nasal. As to the method:
as §1, §2, §3

In data set [3] the test system is Cowpea weevil, Callosobruchus maculatus (F.). In words: Fumigant toxicity, Cowpea weevil. The note with it: 30 adults. Also noted: concentration or dose not given beside the values. As to the method:
as §2

Data set [4] deals with Heterodera glycines. In words: Greenhouse nematicide test, diiodinated C2-C8 hydrocarbons in infested field soil (Experiments 1 and 2). Particulars: rates ≧5.0 mg. As to the method: (§4) Additionally, the nematicidal properties of iodinated hydrocarbons were investigated in greenhouse experiments with field soil infested with Meloidogyne arenaria and Heterodera Glycines. Chemicals were added directly to infested solid at rates <100 mg/Kg soil. Treated soil was kept moist (approximately 60 percent field capacity) and uncovered for 7-10 days when samples were collected, and the pots were planted with ‘Brim’ soybean, Glycine max. […] 1,2-diiodoethane (C2), 1,3-diiodopropane (C3), 1,4-diiodobutane (C4), 1,5-diiodopentane (C5), 1,6-diiodohexane (C6), and […] were applied to soil rates of 2.5, 5.0, 7.5, and 10 mg/Kg soil. All rates of C2 and C8 were ineffective in reducing M. arenaria juvenile (J2) populations in preplant samples. This was also true for C2 and J2 populations of H. glycines; however, […] rates ≧5.0 mg suppressed J2 populations of H. glycines. […] H. glycines J2 numbers in final soil samples were generally inversely related to rates for C3-C8. […] Applications of C3-C6 to soil increased shoot weights in a manner directly related to dosages but only in a curvilinear pattern.
(§5) In this experiment, the nematicidal properties of various diiodinated hydrocarbons were compared. The nematicidal properties of diiodinated C2-C8 normal hydrocarbons was assessed in a greenhouse experiment with field soil infested with Meloidogyne arenaria [Ma] and Heterodera glycines [Hg]. 1,2-diiodoethane [C2], 1,3-diiodopropane [C3], 1,4-diiodobutane [C4], 1.5-diiodopentane [C5], 1,6-diiodohexane [C6] and 1,8-diiodooctane [C8] were applied to soil at rates of 2.5, 5.0, 7.5, and 10.0 mgs/kg soil. The potted soil was kept moist in a greenhouse for 10 days when preplant samples were collected for analysis, and the pots were planted with ‘Brim’ soybean [Glycine max]. After 7 weeks of growth, the plants were removed and final soil samples taken. Data was collected on weights of fresh roots and shoots, root galling by Ma, and numbers of nematodes in soil and roots. All rates of C2 and C8 were ineffective in reducing Ma juvenile [J2] populations in the preplant samples. This was also true for C2 and J2 populations of Hg; however, C8 rates ≧5.0 mg suppressed J2 populations of Hg. […] Hg J2 numbers in final soil samples were generally inversely related to rates for C3-C8. This pattern of suppression in J2 numbers was also applicable to Ma in the final soil samples but only for C3-C6. […] Applications of C3-C6 to soil increased shoot weights in a manner directly related to dosages but non-linear in pattern.

The subject of data set [5] is Meloidogyne arenaria. The description is as above. The note with it: for M. arenaria J2 populations in preplant samples: rates ≧5.0 mg. As to the method: as §4, §5
In data set [6] the test system is 'Brim' soybean [Glycine max]. Kind of data set: Soybean growth in treated soil (Experiments 1 and 2). As to the method:
as §4, §5

For data set [7], the system named is American (Periplaneta americana) and German (Blattella germanica) cockroaches. Kind of data set: Knockdown and mortality of cockroaches in sealed jar (both species). Particulars: for Knockdown of cockroaches: within 1 hour after treatment, 50 μl on cotton ball in sealed 0.95-liter jar; for Sensitivity of American cockroaches compared with German cockroaches: in vivo. As to the method:
In this experiment both the insecticidal and nematicidal properties of iodinated hydrocarbons were compared. In determining the insecticidal properties of the iodinated hydrocarbons, both American (Periplaneta americana) and German (Blattella germanica) cockroaches were used. Groups of cockroaches were confined in 0.95-liter glass jars with a small cotton ball. Exactly 50 μl of a test chemical was applied to the cotton ball and the jar was sealed.

Data set [8] relates to cyst [Heterodera glycines]. In words: Greenhouse nematicide test, iodinated C1-C3 hydrocarbons (Experiment 4). Particulars: 10 days after application; all dosages (0.1, 0.2, 0.4 ml/kg soil). The protocol: (§6) In this experiment, the nematicidal properties of low molecular weight iodinated hydrocarbons were investigated. The nematicidal properties of iodinated C1-C3 hydrocarbons were evaluated in greenhouse experiments with field soil infested with root-knot [Meloidogyne arenaria] and cyst [Heterodera glycines] nematodes. lodomethane, di-iodomethane, iodoethane, di-iodoethane, and 1-iodopropane were added to soil at rates of 0.1, 0.2 and 0.4 ml/kg soil.
(§7) The treated soil was kept moist for 10 days when soil samples were taken for nematode analysis and ‘Brim’ soybean [Glycine max] planted. Soybeans were allowed to grow for 8 weeks and then were removed from the soil to determine plant growth, root-knot indices and the number of galls generated by M arenaria. […] All compounds except 1-iodopropane increased fresh shoot weight when applied at ≧0.1 ml/kg soil.

Data set [9] concerns root-knot [Meloidogyne arenaria]. The description is as above. The note with it: for M. arenaria [J2] juvenile populations in soil: 10 days after application, all rates (0.1, 0.2, 0.4 ml/kg soil). As to the method:
as §6, §7

[10] abbreviates: 1 h exposure, read-out: % Mortality after 1 h exposure, German cockroach.
[11] abbreviates: 24 h exposure, read-out: % Mortality after 24 h exposure, German cockroach.
The mark [12] stands for this setting: 1 h exposure, read-out: % Mortality after 1 h exposure, American cockroach.
[13] abbreviates: 24 h exposure, read-out: % Mortality after 24 h exposure, American cockroach.

Molecules are shown by their SMILES. Where two headings read alike, the source gives them in different places.

On to `ICCCCCCCCI` [1,8-diiodooctane], for which the mortality at 50 µL/jar in data set [1] (setting [10]), in [1] (setting [11]), in data set [2] (setting [12]) and in data set [2] (setting [13]) was 0% each time. Moreover, the “% Mortality after 24 h exposure, Cowpea weevil” value (from here on “% Mortality … Cowpea weevil”) in data set [3] came to 0%. The “H. glycines J2 populations in preplant samples” value in [4] is on record as “suppressed”. In [5] (all rates (2.5, 5.0, 7.5, 10 mg/Kg soil)), the “M. arenaria juvenile (J2) populations in preplant samples” value is recorded as “ineffective”. Moreover, the “M. arenaria J2 numbers in final soil samples” value in data set [5] (final soil samples after soybean growth, rates 2.5-10 mg/kg soil) was “did not change significantly”. Also, the “Shoot weights of soybean” value in [6] (2.5 mg rate) was “increased shoot weights slightly”; in [6] (rates higher than 2.5 mg), “no significant effect”.

In the case of `CCI` [iodoethane], the mortality at 50 µL/jar in [1] (setting [10]), in [1] (setting [11]), in [2] (setting [12]) and in [2] (setting [13]) was 100% each time. Also, the “% Mortality … Cowpea weevil” value in [3] is 100%. The Knockdown of cockroaches in data set [7] came to 100%. Further, in data set [8], the “H. glycines J2 populations in soil” value is given as “ineffective”. Besides, the “M. arenaria [J2] juvenile populations in soil” value in [9] is “ineffective”. Moreover, in data set [9] (applied at ≧0.2 ml/kg soil), the “Gall formation by M. arenaria” value is listed as “Significant suppression”.

As to `ICCCCCI` [1,5-diiodopentane], the mortality at 50 µL/jar worked out at 0% in data set [1] (setting [10]), 0% in data set [1] (setting [11]), 11% in [2] (setting [12]) and 0% in data set [2] (setting [13]). The “% Mortality … Cowpea weevil” value in [3] stood at 37%. The “Sensitivity of American cockroaches compared with German cockroaches” value in data set [7] is recorded as “more sensitive”. For the same compound, the “H. glycines J2 populations in preplant samples” value in data set [4] is recorded as “virtually eliminated”. In [5], the “M. arenaria J2 populations in preplant samples” value is “virtually eliminated”.

On to `CCCI` [1-iodopropane], for which the “% Mortality after 1 h exposure, German cockroach” value in data set [1] (1 h exposure) turned out to be 100%. In data set [1] (24 h exposure), the “% Mortality after 24 h exposure, German cockroach” value is on record as 100%. In addition, in [2] (1 h exposure), the “% Mortality after 1 h exposure, American cockroach” value is listed as 100%. For the same compound, in data set [2] (24 h exposure), the “% Mortality after 24 h exposure, American cockroach” value came to 100%. In addition, in data set [3], the “% Mortality … Cowpea weevil” value is recorded as 97%. Besides, the Knockdown of cockroaches in [7] amounted to 100%. In addition, in data set [8], the “H. glycines J2 populations in soil” value is “ineffective”. For the same compound, the “M. arenaria [J2] juvenile populations in soil” value in data set [9] (listed as 1 iodopropane) is recorded as “ineffective”; in data set [9] (listed as iodopropane), “increased directly”. Moreover, in data set [9] (soybean after 8 weeks, rates 0.1-0.4 ml/kg soil), the “Root galling (root knot) by M. arenaria” value is “no significant effect”.

Regarding `IC(I)=C(I)I` [tetraiodoethylene], the mortality at 50 µL/jar in [1] (setting [10]) was 0%; in [1] (setting [11]), 3%; in data set [2] (setting [12]), 0%; in data set [2] (setting [13]), 0%. In addition, in data set [3], the “% Mortality … Cowpea weevil” value is 0%.

As to `ICCCCCCI` [1,6-diodohexane, 1,6-diiodohexane], the mortality at 50 µL/jar worked out at 0% in data set [1] (setting [10]), 0% in data set [1] (setting [11]), 5% in data set [2] (setting [12]) and 0% in [2] (setting [13]). Moreover, the “% Mortality … Cowpea weevil” value in data set [3] is 0%. The “Sensitivity of American cockroaches compared with German cockroaches” value in data set [7] is “more sensitive”. Further, the “H. glycines J2 populations in preplant samples” value in data set [4] is “virtually eliminated”. Further, the “M. arenaria J2 populations in preplant samples” value in [5] was “virtually eliminated”.

As usually defined, the mortality is the percentage killed.

Values taken from patent US6465527B1, “Iodinated hydrocarbon pesticide” (priority 1999, dated 2002).
